Data reported in US20240124442A1, “TRICYCLIC-AMIDO-BICYCLIC PRMT5 INHIBITORS” (AMGEN INC., priority 2021, published 2024).

Test system: HCT116 MTAP null cells
Assay: HCT116 MTAP null cell line proliferation / cell viability (CellTiter-Glo, 6 days)
Format: cell-based
Conditions: 144 h; HCT116 MTAP null cells, 6 days treatment, CellTiter-Glo cell viability; read-out: HCT-116 MTAP null IC50
How it was run: (§1)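 Isogenic HCT116 pair (parental and MTAP-knockout) in RPMI 1640 + 10% FBS, treated 6 days with 8–9-point 1:3 dilutions from 1 or 10 μM top, or 22-point 1:2 dilutions from 10 or 50 μM top. Viability by CellTiter-Glo luminescence; IC50 from 4-parameter logistic fit or sigmoidal fit with Hill slope fixed at −1.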

Row | SMILES | IC50 [nM]
1 | CN(C(=O)c1cc2c3c(c(N)nc2cc1F)COC3)[C@H]1COc2cc(S(C)(=O)=O)ccc21 (single isomer, unassigned) [Example 354] | 3870
2 | CN(C(=O)c1cc2c3c(c(N)nc2cc1F)COC3)[C@@H]1COc2cc(C(F)(F)F)cc(F)c21 (single isomer, unassigned) [Example 355] | 26
3 | CN(C(=O)c1cc2c3c(c(N)nc2cc1F)COC3)[C@H]1COc2cc(C(F)(F)F)cc(F)c21 (single isomer, unassigned) [Example 356] | 1040
4 | CN(C(=O)c1cc2c3c(c(N)nc2cc1F)COC3)[C@@H]1COc2cc(S(F)(F)(F)(F)F)ccc21 (single isomer, unassigned) [Example 357] | 12
5 | CN(C(=O)c1cc2c3c(c(N)nc2cc1F)COC3)[C@H]1COc2cc(S(F)(F)(F)(F)F)ccc21 (single isomer, unassigned) [Example 358] | 1200
6 | C[C@H]1OCc2c1c(N)nc1cc(F)c(C(=O)N(C)[C@@H]3CCc4nc(C(F)(F)F)ccc43)cc21 (single isomer, unassigned) [Example 359] | 17
7 | C[C@H]1OCc2c1c(N)nc1cc(F)c(C(=O)N(C)[C@H]3CCc4nc(C(F)(F)F)ccc43)cc21 (single isomer, unassigned) [Example 360] | 810
8 | CN(C(=O)c1cc2c3c(c(N)nc2cc1Cl)COC3)[C@@H]1COc2cc(C(F)(F)F)ncc21 (single isomer, unassigned) [Example 361] | 29
9 | CN(C(=O)c1cc2c3c(c(N)nc2cc1Cl)COC3)[C@H]1COc2cc(C(F)(F)F)ncc21 (single isomer, unassigned) [Example 362] | 744
10 | CN(C(=O)c1ccc2nc(N)c3cnn(C)c3c2c1)[C@@H]1CCc2nc(C(F)(F)F)ccc21 (single isomer, unassigned) [Example 363] | 17
11 | CN(C(=O)c1ccc2nc(N)c3cnn(C)c3c2c1)[C@H]1CCc2nc(C(F)(F)F)ccc21 (single isomer, unassigned) [Example 364] | 2860
12 | CCN(C(=O)c1ccc2nc(N)c3cnn(C)c3c2c1)[C@@H]1COc2cc(C(F)(F)F)ccc21 (single isomer, unassigned) [Example 365] | 5
13 | CN(C(=O)c1ccc2nc(N)c3cnn(C)c3c2c1)[C@@H]1COc2cc(S(F)(F)(F)(F)F)ccc21 (single isomer, unassigned) [Example 366] | 6
14 | CN(C(=O)c1ccc2nc(N)c3cnn(C)c3c2c1)[C@H]1COc2cc(S(F)(F)(F)(F)F)ccc21 (single isomer, unassigned) [Example 367] | 485
15 | CN(C(=O)c1ccc2nc(N)c3cnn(C)c3c2c1)[C@@H]1CCc2cc(Br)ccc21 (single isomer, unassigned) [Example 368] | 37
16 | CN(C(=O)c1ccc2nc(N)c3cnn(C)c3c2c1)[C@H]1CCc2cc(Br)ccc21 (single isomer, unassigned) [Example 369] | 519
17 | CN(C(=O)c1ccc2nc(N)c3cnn(C)c3c2c1)[C@@H]1CCc2nc(Br)ccc21 (single isomer, unassigned) [Example 370] | 29
18 | CN(C(=O)c1cc2c(cn1)nc(N)c1cnn(C)c12)[C@@H]1CCc2nc(C(F)(F)F)ccc21 (single isomer, unassigned) [Example 371] | 27
19 | CCN(C(=O)c1cc2c(cn1)nc(N)c1cnn(C)c12)[C@@H]1COc2cc(C(F)(F)F)ccc21 (single isomer, unassigned) [Example 372] | 10
20 | CN(C(=O)c1cc2c(cc1F)nc(N)c1cnn(C)c12)[C@@H]1COc2cc(C#N)ccc21 (single isomer, unassigned) [Example 373] | 4
21 | CN(C(=O)c1cc2c(cc1F)nc(N)c1cnn(C)c12)[C@H]1COc2cc(C#N)ccc21 (single isomer, unassigned) [Example 374] | 272
22 | CN(C(=O)c1cc2c(cc1F)nc(N)c1cnn(C)c12)[C@@H]1CCc2nc(C(F)(F)F)ccc21 (single isomer, unassigned) [Example 375] | 9
23 | CN(C(=O)c1cc2c(cc1F)nc(N)c1cnn(C)c12)[C@H]1CCc2nc(C(F)(F)F)ccc21 (single isomer, unassigned) [Example 376] | 882

Test system: HCT116 WT cells
Assay: HCT116 WT (parent) cell line proliferation / cell viability (CellTiter-Glo, 6 days)
Format: cell-based
Conditions: Homo sapiens, HCT-116, 144 h, 6 days treatment
How it was run: as §1

Row | SMILES | IC50 [nM]
24 | CN(C(=O)c1cc2c3c(c(N)nc2cc1F)COC3)[C@H]1COc2cc(S(C)(=O)=O)ccc21 (single isomer, unassigned) [Example 354] | 50000
25 | CN(C(=O)c1cc2c3c(c(N)nc2cc1F)COC3)[C@@H]1COc2cc(C(F)(F)F)cc(F)c21 (single isomer, unassigned) [Example 355] | 1180
26 | CN(C(=O)c1cc2c3c(c(N)nc2cc1F)COC3)[C@H]1COc2cc(C(F)(F)F)cc(F)c21 (single isomer, unassigned) [Example 356] | 11300
27 | CN(C(=O)c1cc2c3c(c(N)nc2cc1F)COC3)[C@@H]1COc2cc(S(F)(F)(F)(F)F)ccc21 (single isomer, unassigned) [Example 357] | 208
28 | CN(C(=O)c1cc2c3c(c(N)nc2cc1F)COC3)[C@H]1COc2cc(S(F)(F)(F)(F)F)ccc21 (single isomer, unassigned) [Example 358] | 8850
29 | C[C@H]1OCc2c1c(N)nc1cc(F)c(C(=O)N(C)[C@@H]3CCc4nc(C(F)(F)F)ccc43)cc21 (single isomer, unassigned) [Example 359] | 1230
30 | C[C@H]1OCc2c1c(N)nc1cc(F)c(C(=O)N(C)[C@H]3CCc4nc(C(F)(F)F)ccc43)cc21 (single isomer, unassigned) [Example 360] | 42300
31 | CN(C(=O)c1cc2c3c(c(N)nc2cc1Cl)COC3)[C@@H]1COc2cc(C(F)(F)F)ncc21 (single isomer, unassigned) [Example 361] | 1340
32 | CN(C(=O)c1cc2c3c(c(N)nc2cc1Cl)COC3)[C@H]1COc2cc(C(F)(F)F)ncc21 (single isomer, unassigned) [Example 362] | 35600
33 | CN(C(=O)c1ccc2nc(N)c3cnn(C)c3c2c1)[C@@H]1CCc2nc(C(F)(F)F)ccc21 (single isomer, unassigned) [Example 363] | 2500
34 | CN(C(=O)c1ccc2nc(N)c3cnn(C)c3c2c1)[C@H]1CCc2nc(C(F)(F)F)ccc21 (single isomer, unassigned) [Example 364] | 34900
35 | CCN(C(=O)c1ccc2nc(N)c3cnn(C)c3c2c1)[C@@H]1COc2cc(C(F)(F)F)ccc21 (single isomer, unassigned) [Example 365] | 212
36 | CN(C(=O)c1ccc2nc(N)c3cnn(C)c3c2c1)[C@@H]1COc2cc(S(F)(F)(F)(F)F)ccc21 (single isomer, unassigned) [Example 366] | 155
37 | CN(C(=O)c1ccc2nc(N)c3cnn(C)c3c2c1)[C@H]1COc2cc(S(F)(F)(F)(F)F)ccc21 (single isomer, unassigned) [Example 367] | 5270
38 | CN(C(=O)c1ccc2nc(N)c3cnn(C)c3c2c1)[C@@H]1CCc2cc(Br)ccc21 (single isomer, unassigned) [Example 368] | 2530
39 | CN(C(=O)c1ccc2nc(N)c3cnn(C)c3c2c1)[C@H]1CCc2cc(Br)ccc21 (single isomer, unassigned) [Example 369] | 4130
40 | CN(C(=O)c1ccc2nc(N)c3cnn(C)c3c2c1)[C@@H]1CCc2nc(Br)ccc21 (single isomer, unassigned) [Example 370] | 1800
41 | CN(C(=O)c1cc2c(cn1)nc(N)c1cnn(C)c12)[C@@H]1CCc2nc(C(F)(F)F)ccc21 (single isomer, unassigned) [Example 371] | 1620
42 | CCN(C(=O)c1cc2c(cn1)nc(N)c1cnn(C)c12)[C@@H]1COc2cc(C(F)(F)F)ccc21 (single isomer, unassigned) [Example 372] | 114
43 | CN(C(=O)c1cc2c(cc1F)nc(N)c1cnn(C)c12)[C@@H]1COc2cc(C#N)ccc21 (single isomer, unassigned) [Example 373] | 235
44 | CN(C(=O)c1cc2c(cc1F)nc(N)c1cnn(C)c12)[C@H]1COc2cc(C#N)ccc21 (single isomer, unassigned) [Example 374] | 22400
45 | CN(C(=O)c1cc2c(cc1F)nc(N)c1cnn(C)c12)[C@@H]1CCc2nc(C(F)(F)F)ccc21 (single isomer, unassigned) [Example 375] | 568
46 | CN(C(=O)c1cc2c(cc1F)nc(N)c1cnn(C)c12)[C@H]1CCc2nc(C(F)(F)F)ccc21 (single isomer, unassigned) [Example 376] | 12800
